Converted amounts (≈) assume the structure as drawn. Where two headings read alike, the source gives them in different places. Starred links: 1 amine or outer side, 2 acyl side, 3 side chain; linkers in the order of their positions; H or OH if unused. Positions of bridges follow the written chain, without caps; N, C: chain ends. Non-standard residues stand in square brackets, D forms with d. Residues, ends and D or L forms follow the SMILES beside them. *: point of attachment. Trp(7-Me) = Cc1cccc2c(C[C@H](N)C(=O)O)c[nH]c12; X1 = O=C(CCCCN[*:3])N[C@@H](CS[*:2])C(=O)[*:1]; 2Nal = N[C@@H](Cc1ccc2ccccc2c1)C(=O)O; 3Pal = N[C@@H](Cc1cccnc1)C(=O)O; Thp = NC1(C(=O)O)CCOCC1; Me2NCH2CH2 = CN(C)CC*; Aib = CC(C)(N)C(=O)O; Ava = NCCCCC(=O)O; Sar = CNCC(=O)O
T1: recombinant human IL-23R-Fc chimera (human, UniProt Q5VWK5 24-353)
T1 construct: used at 0.1 µg/ml in the ELISA; not shown: Fc part of the chimera; detected with goat anti-hu-IgG1-HRP a
T1 sequence (looked up): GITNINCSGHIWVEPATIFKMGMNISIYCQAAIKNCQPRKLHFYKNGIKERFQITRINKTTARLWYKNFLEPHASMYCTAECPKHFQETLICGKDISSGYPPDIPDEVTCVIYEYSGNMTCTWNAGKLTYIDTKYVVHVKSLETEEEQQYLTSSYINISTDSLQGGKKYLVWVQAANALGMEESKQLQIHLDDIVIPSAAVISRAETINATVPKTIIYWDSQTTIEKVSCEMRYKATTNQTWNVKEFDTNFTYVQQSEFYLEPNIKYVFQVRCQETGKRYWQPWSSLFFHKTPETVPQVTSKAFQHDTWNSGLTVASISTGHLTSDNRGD


Experiments:
[1] = Solubility testing of peptides at different pH; format: physicochemical; conditions: target concentration 1 mg/ml, 2 hours agitation
Outline: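 Solid obtained by drying down DMSO stock was taken up at 1 mg/mL in 50 mM HCl pH 1.2 or 50 mM phosphate pH 6.5, 7.4 or 9.0, agitated gently for 2 h, then filtered (0.45 μm). Solubility by UPLC-UV peak area against a DMSO reference standard curve, corrected for extinction coefficients.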

[2] = test system: Pancreatin; experiment: Protease stability in simulated intestinal fluid (Pancreatin-SIF, FaSSIF); format: in vitro ADME; conditions: 1 μM peptide, 37° C.; for remaining at 1 h, 1 µM: 60 min, read-out: FaSSIF 60 (min), remaining percent of peptide; for remaining at 2 h, 1 µM: 120 min, read-out: FaSSIF 120 (min), remaining percent of peptide; for remaining at 4 h, 1 µM: 240 min, read-out: FaSSIF 240 (min), remaining percent of peptide
Outline: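 Peptide (1 μM final) was incubated at 37° C in simulated intestinal fluid containing pancreatin (1 mg per 10 mL SIF concentrate). Samples were quenched with ethanol/0.1% HCOOH at 0, 60, 120 and 240 min and analysed by LC-MS/MS. Percent remaining is the peak area relative to time 0 (100%).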

[3] = molecular target: T2, human interleukin-23 receptor (recombinant human IL-23R-Fc chimera) (Homo sapiens, UniProt Q5VWK5); experiment: Human ELISA IL23/IL23R (assay for specific human IL23R antagonists); format: binding; conditions: Table 10; read-out: Human ELISA IL23/IL23R IC50
T2 construct: Fc (IgG Fc fusion)
Outline: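 Plates coated overnight at 4 °C with human IL23 ([…]), blocked, then serially diluted peptides added with recombinant human IL-23R-Fc (0.1 μg/ml final) for 60 min at room temperature. Bound receptor detected with anti-human IgG1-HRP and fluorogenic peroxidase substrate.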

[4] = test system: IL-23 induced STAT3 signaling in HEK-Blue™ IL-23 cells; experiment: IL-23 induced STAT3 signaling in HEK-Blue IL-23 cells (SEAP reporter); format: cell-based; conditions: human IL23 0.25 ng/ml, read-out: pSTAT3
Outline: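 HEK-Blue IL-23 cells (10,000/well) pre-incubated 60 min at 37 °C with serially diluted peptides, then stimulated overnight with human IL-23 (0.25 ng/ml final). STAT3-driven SEAP in supernatant detected with QUANTI-Blue after 45 min at RT (OD 620-655 nm); dose-response curves fitted.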

[5] = test system: T3, Pepsin; experiment: Protease stability in simulated gastric fluid (Pepsin-SGF, FaSSGF); format: in vitro ADME; conditions: simulated gastric fluid with pepsin (Pepsin-SGF), 60 min, 1 μM peptide, 37° C., read-out: FaSSGF 60 (min), remaining percent of peptide
T3 construct: purchased Merck Millipore
Outline: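 Peptides at 1 μM final in pepsin-containing SGF at 37° C, sampled at 0, 60, 120 and 240 min, quenched with ethanol (0.1% HCOOH). Analysed by LCMS/MS; percent remaining from peak area relative to time 0 (set to 100%).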

[6] = molecular target: T1, recombinant human IL-23R-Fc chimera; experiment: competition ELISA: IL-23R-Fc binding to coated human IL23
Experimental: Antagonism of compounds for human interleukin-23 receptor antagonists, was determined by an ELISA assay.
A 384-well plate was coated with 50 μl/well of human IL23 at a final concentration of […] and incubated overnight at 4° C. The wells were washed 3 times with 80 μl wash buffer and blocked with 80 μl blocking buffer for 60 minutes at room temperature and washed again. 20 μl of serially diluted test peptides was added to each well and subsequently 20 μl of recombinant human IL-23R-Fc chimera at final concentration of 0.1 μg/ml. The plate was incubated for 60 minutes at room temperature. After the wells were washed, bound IL23R-Fc was detected with goat anti-hu-IgG1-HRP antibody. Signals were visualized with QuantaBlu Fluorogenic Peroxidase Substrate.

[7] = 50 mM HCl buffer, 50 mM HCl pH 1.2, read-out: Solubility Buffer pH 1.2
[8] = 50 mM phosphate buffer pH 6.5, read-out: Solubility Buffer pH 6.5
[9] = 50 mM phosphate buffer pH 7.4, read-out: Solubility Buffer pH 7.4
[10] = 50 mM phosphate buffer pH 9.0, read-out: Solubility Buffer pH 9.0

Molecule | solubility at 2 h [1, 7] [µg/mL] | solubility at 2 h [1, 8] [µg/mL] | solubility at 2 h [1, 9] [µg/mL] | solubility at 2 h [1, 10] [µg/mL] | remaining at 1 h, 1 µM [2] [%] | remaining at 2 h, 1 µM [2] [%] | remaining at 4 h, 1 µM [2] [%] | IC50 [3] [nM] | IC50 [4] [nM] | remaining at 1 h, 1 µM [5] [%] | IC50 [6] [nM]
CC(=O)NCCCC[C@@H]1NC(=O)[C@H](Cc2c[nH]c3c(C)cccc23)NC(=O)[C@@H](NC(C)=O)CCCCNC(=O)[C@@H]2CSSC[C@H](NC1=O)C(=O)N[C@@H](Cc1ccc(OCCN(C)C)cc1)C(=O)N[C@@H](Cc1ccc3ccccc3c1)C(=O)NC1(CCOCC1)C(=O)N[C@H](C(=O)N[C@@H](CC(N)=O)C(=O)N[C@@H](Cc1cccnc1)C(=O)N(C)CC(N)=O)CCC(=O)NCCCCC(=O)N2 [compound 66] (Ac-K[Trp(7-Me)]K(Ac)CY(Me2NCH2CH2)[2Nal][Thp]EN[3Pal][Sar]-NH2; linker 1-4-8 via X1) | ≥ 1630 | ≥ 1040 | ≥ 1290 | ≥ 1130 | 94 | 94 | 88 | 0.52 | 0.15 | 94 | –
CC[C@H](C)[C@H](NC(=O)[C@H](Cc1cccnc1)NC(=O)[C@H](CC(N)=O)NC(=O)[C@@H]1CCC(=O)NCCCCC(=O)N[C@H]2CSSC[C@H](NC(=O)[C@H](CCCCNC(C)=O)NC(=O)[C@H](Cc3c[nH]c4ccccc34)NC(=O)[C@H]([C@@H](C)O)NC(=O)[C@H](CC(N)=O)NC2=O)C(=O)N[C@@H](Cc2ccc(OCCN(C)C)cc2)C(=O)N[C@@H](Cc2ccc3ccccc3c2)C(=O)NC(C)(C)C(=O)N1)C(N)=O [compound 37] ([Ava]CNTWK(Ac)CY(Me2NCH2CH2)[2Nal][Aib]EN[3Pal]I-NH2; disulfide 2-7; lactam N-11) | ≥ 890 | ≥ 940 | 590 (≈ 311 µM) | 90 (≈ 47.5 µM) | 80 | 79 | 63 | 0.38 | 2 | 77 | –
COc1ccc(C[C@@H]2NC(=O)[C@@H]3CSSC[C@H](NC(=O)CCCCNC(=O)CC[C@@H](C(=O)N[C@@H](CC(N)=O)C(=O)N[C@@H](CC(N)=O)C(N)=O)NC(=O)C(C)(C)NC(=O)[C@H](Cc4ccc5ccccc5c4)NC2=O)C(=O)N[C@@H](CC(N)=O)C(=O)N[C@@H]([C@@H](C)O)C(=O)N[C@@H](Cc2c[nH]c4ccccc24)C(=O)N[C@@H](CCC(N)=O)C(=O)N3)cc1 [compound 1] ([Ava]CNTWQCY(Me)[2Nal][Aib]ENN-NH2; disulfide 2-7; lactam N-11) | 100 (≈ 60.6 µM) | < 50 | < 50 | – | 72 | 74 | 58 | 0.72 | 18.5 | 2 | –
XXNTWQXXXXENN (not fully specified; Apt(§1)-Pen(@2)-N-T-W-Q-Pen(@2)-Yae-Nal-Thp-E(§1)-N-N-NH2) [Pen peptide compound of SEQ ID NO: 163] | – | – | – | – | – | – | – | – | – | – | 163
